# Paper PMC3297008, “Novel Marine Phenazines as Potential Cancer Chemopreventive and Anti-Inflammatory Agents” (Marine Drugs, 2012)
# Like-named read-outs stand apart in the source and are kept apart here.
# Tests used:
# NFκB [1] = tested on: NFκB; set-up: method as in PMID 21105712; conditions: earlier work; read-out: IC50, inhibition of NFκB; cited from earlier work
# iNOS = tested on: iNOS; set-up: method as in PMID 21105712; conditions: cited from earlier work
# [2] = tested on: PGE2 production in LPS-induced RAW 264.7 cells; experiment: LPS-induced PGE2 production in RAW 264.7 cells (ELISA); assay type: cell-based; conditions: Mus musculus
# Method: RAW 264.7 cells (1 × 10^5 cells/well, 200 µL) were incubated in a 96-well culture plate in the presence of 5% CO2 at 37 °C for 24 h. The medium was changed to non-colored DMEM containing 5% FBS, and the cells were treated with various concentrations of compounds for 30 min followed by 1 μg/mL of LPS treatment for 24 h. Cell media were collected, diluted 18-times and used for measuring PGE2. Nunc-Immuno 96-well plates were coated with secondary antibody (goat anti-mouse IgG) affinity purified (Jackson Immuno Research Laboratories). Aliquots of cell media were added to the immune plate with primary PGE2 monoclonal antibody (Cayman Chemical) and a tracer PGE2-acetylcholinesterase (Cayman Chemical) and incubated overnight at room temperature in the dark. The next day, the wells were aspirated, washed, 200 µL of Elman’s reagent was added in each well, and incubated 2–5 h at 37 °C out of direct light until control wells reach an optical density 0.4–0.5. Gentle rotating/shaking was used to decrease the time required for color development. Absorbance was read at 412 nm. The PGE2 concentration of each sample was calculated from a PGE2 standard curve (PGE2 from Cayman Chemical). The percent inhibition as a function of the inhibitor concentration was graphed to determine the IC50 values (concentration at which there was 50% inhibition).
# RAW 264.7 cells = experiment: Cell viability (SRB) of RAW 264.7 cells in the NO assay; assay type: cell-based; conditions: 50 µM
# [3] = tested on: NO production in LPS-induced RAW 264.7 cells; experiment: LPS-induced NO production in RAW 264.7 cells (Griess reagent); conditions: Mus musculus
# Method: The amount of nitrite was measured using the Griess reagent to assess the NO production [47, 48]. […] The cells were treated with various concentrations of compounds dissolved in phenol-red free DMEM for 30 min followed by 1 μg/mL of LPS treatment for 24 h. […] The standard curve was created by using known concentrations of sodium nitrite.
# NFκB [4] = experiment: TNF-α-induced NFκB luciferase reporter assay in stably-transfected human embryonic kidney cells 293; assay type: cell-based; conditions: human embryonic kidney cells 293 NFκB reporter, TNF-α 2 ng/mL, 6 h; read-out: IC50, inhibition of TNF-α-induced NFκB activity
# Method: Activation of NFκB may promote cell proliferation or prevent cell death through apoptosis. Inhibition of NFκB signaling has potential application for the treatment or prevention of cancer; some inhibitors are known. […] […].
# We employed human embryonic kidney cells 293 Panomic (Fremont, CA, USA) for monitoring changes occurring along the NFκB pathway. Stable constructed cells were seeded into sterile 96-well plate at 20 × 10^3 cells per well. Cells maintained in Dulbecco’s modified Eagle’s medium (DMEM) Invitrogen Co. (Carlsbad, CA, USA), supplemented with 10% FBS, 100 units/mL penicillin, 100 µg/mL streptomycin, 2 mM L-glutamine. After 48 h incubation, the medium was replaced and cells were treated with various concentration of test substances dissolved in PBS. TNF-α (Human, Recombinant, E. coli, Calbiochem, Gibbstown, NJ, USA) was used as an activator at a concentration of 2 ng/mL (0.14 nM). The plate was incubated for 6 h. Spent medium was discarded and the cells were washed once with PBS. Cells were lysed using 50 µL (for 96-well plate) Reporter Lysis Buffer from Promega, by incubating for 5 min on a shaker, and stored at −80 °C. The luciferase assay was performed using the Luc assay system from Promega (Madison, WI, USA). The gene product, luciferase enzyme, reacts with luciferase substrate, emitting light which was detected using a luminometer (LUMIstar Galaxy BMG). Data for NFκB constructs are expressed as IC50 values (i.e., concentration required to inhibit TNF-activated NFκB activity by 50%).
# [5] = tested on: quinone reductase 1 (NQ01, QR1); set-up: method as in PMID 21187465; conditions: cell culture; cited from earlier work
# [6] = tested on: glutathione S-transferase (GST); set-up: method as in PMID 21187465; conditions: cell culture; cited from earlier work
# [7] = set-up: method as in PMID 21187465; conditions: cited from earlier work
structure (smiles),measurement,setting,value
Oc1c(Br)ccc2nc3ccccc3nc12 [2-bromo-1-hydroxyphenazine],IC50,NFκB [1],73 µM
same,inhibition of iNOS activity,iNOS,did not inhibit iNOS activity
"Oc1ccc(/C=C/c2cc(O)cc(O)c2)cc1 [Resveratrol, resveratrol, reference compound]",inhibition at 50 µM,"[2]; RAW264.7, read-out: PGE2 % inhibition (50 µM)",70.2 ± 13.9%
same,IC50,"[2]; RAW264.7, read-out: PGE2 IC50",2.5 ± 0.43 µM
same,NO % cell survival,RAW 264.7 cells,86.9 ± 3.9%
same,inhibition at 50 µM,"[3]; RAW264.7, read-out: NO % inhibition (50 µM), LPS-induced RAW 264.7 cells, 50 µM",93 ± 0.8%
same,IC50,"[3]; RAW264.7, read-out: NO IC50",31.9 ± 1.8 µM
same,IC50,NFκB [4],2.5 ± 0.3 µM
"Oc1c(Br)cc(Br)c2nc3ccccc3nc12 [2,4-dibromo-1-hydroxyphenazine]",activation of QR1,[5],activate
same,activation of glutathione S-transferase (GST),[6],activate
same,bioavailability,[7],poor bioavailability
same,in vivo activity,[7],low
"Cc1ccc(S(=O)(=O)N[C@@H](Cc2ccccc2)C(=O)CCl)cc1 [TPCK, N-tosyl-L-phenylalanyl chloromethyl ketone, reference compound]",IC50,NFκB [4],3.8 µM
"Cc1ccc(S(=O)(=O)/C=C/C#N)cc1 [BAY-11-7082, reference compound]",IC50,NFκB [4],2 ± 0.28 µM
